We go through 24 compounds from patent US20250195530A1, “POLQ INHIBITORS” (ASTRAZENECA AB, priority 2022, published 2025).

For the first assay, the system named is DLD-1 BRCA2−/− cells. Briefly: Homologous recombination synthetic lethal inhibition of proliferation, DLD-1 BRCA2-/- (Cell Titre Glo 3D). The class given is cell-based. To be noted: Homo sapiens, DLD-1, DLD-1 BRCA2-/- proliferation; column head only partly shown; read-out: POLQ PD Prolif Lumin (converted). From the text:
This assay identifies anti-proliferative effects of POLQ compounds in the homologous recombination deficient colorectal cell line DLD-1 BRCA2−/− over 8-9 population doublings (7 days for DLD-1 and 12 days for DLD-1 BRCA2−/−). DLD1 BRCA2 wt are used as a control to detect cell toxic effects not specific to homologous recombination deficiency.
DLD-1 BRCA2−/− and DLD-1 cells were kept in continuous culture in Assay Medium (RPMI 1640 phenol red free (Sigma R7509) containing 1% GlutaMAX (Gibco 35050) and 10% Foetal Bovine Serum (Gibco 10270-106)). On the day of the assay cells in culture of ˜80-90% confluent were used. Cell monolayers were washed with 10 mL PBS, then removed and added 2 mL TrypLE Express (Gibco 12604). The cells with TrypLE Express were incubated for 5 minutes in cell culture incubator and then the detached cells resuspend in 15 mL Assay Medium. Cells were counted using a ViCell and the cell images were monitored for clumps of cells, ideally they should be single or <3 cell clusters. The cells were diluted to 3,000 cells/mL of DLD-1 BRCA2−/− and 1,500 cells/mL of DLD-1 in Assay Medium and 100 μL added per well of transparent bottomed, black, tissue culture-treated 96-well plates (CoStar, No. 3904) Assay Ready Plates. The Assay Ready Plates contain a 10 point 10 μM to 0.51 nM dose range with three-fold dilutions in DMSO with a final volume of 100 nL. The plates were incubated at 37° C. with 5% C02 for 6 days. On day 6, 100 μL/well of Assay Medium was added to duplicate Assay Ready Plates. 90 μL of culture medium was removed from the cell plates and replenished with the Assay Media and compounds from the duplicate Assay Ready Plates using the Bravo. The plates were further incubated at 37° C. with 5% CO2. On day 7 the plates containing DLD-1 and Cell Titre Glo 3D (Promega G9683) were equilibrated to room temperature, then 60 μL of Cell Titre Glo 3D was added per well and incubated on a shaking platform for 30 min. Plates were read on the Envision measuring luminescence for 1 second per well. On day 12 the plates containing DLD-1 BRCA2−/− cells and Cell Titre Glo 3D (Promega G9683) were equilibrated to room temperature, then 60 μL Cell Titre Glo 3D added per well and incubated on a shaking platform for 30 min. Plates were read on the Envision measuring luminescence for 1 second per well. The data was exported into a suitable software package (such as Genedata) to perform curve fitting analysis. Inhibition of cell proliferation was expressed as an IC5o value and was determined by calculation of the concentration of compound that was required to give a 50% reduction of the average maximum Total Intensity signal.
For `CC(=O)NCCc1ccc(-c2nc3c(OC4(C)CC4)ncnc3n2Cc2cc(C)ccn2)c(Cl)c1` [Example T212, N-(3-chloro-4-(6-(1-methylcyclopropoxy)-9-((4-methylpyridin-2-yl)methyl)-9H-purin-8-yl)phenethyl)acetamide], the IC50 was 398 nM.
Still for that read-out and setting: next, `Cc1ccnc(Cn2c(-c3ccc(C(=O)N4CC[C@H](F)C4)cc3Cl)nc3c(OC4(C)CC4)ncnc32)c1` [Example T281, (S)-(3-chloro-4-(6-(1-methylcyclopropoxy)-9-((4-methylpyridin-2-yl)methyl)-9H-purin-8-yl)phenyl)(3-fluoropyrrolidin-1-yl)methanone]: 794 nM.
The same measure, in the same setting: next, `Cc1ccnc(Cn2c(-c3ccc(C(=O)N(C)CCO)cc3Cl)nc3c(OC4(C)CC4)ncnc32)c1` [Example T220, 3-chloro-N-(2-hydroxyethyl)-N-methyl-4-(6-(1-methylcyclopropoxy)-9-((4-methylpyridin-2-yl)methyl)-9H-purin-8-yl)benzamide]: 3160 nM; `Cc1ccnc(Cn2c(-c3ccc(CCNC(=O)CO)cc3Cl)nc3c(OC4(C)CC4)ncnc32)c1` [Example T223, N-(3-chloro-4-(6-(1-methylcyclopropoxy)-9-((4-methylpyridin-2-yl)methyl)-9H-purin-8-yl)phenethyl)-2-hydroxyacetamide]: 501 nM.

Staying with this assay, now noted: Homo sapiens, DLD-1, DLD-1 BRCA2 −/− cells; mean; read-out: POLQ PD Prolif Lumin BRCA2 −/− mean pIC50 (converted).
Take `Cc1cc(Cn2c(-c3ccc(CC(N)=O)cc3Cl)nc3c(OC4(C)CC4)ncnc32)n(C)n1` [Example T32, 2-(3-chloro-4-(9-((1,3-dimethyl-1H-pyrazol-5-yl)methyl)-6-(1-methylcyclopropoxy)-9H-purin-8-yl)phenyl)acetamide]: the IC50 was 2000 nM.
Still for that read-out and setting: as for `CC1(Oc2ncnc3c2nc(-c2ccc(CC(N)=O)cc2Cl)n3Cc2cc(F)ccc2C#N)CC1` [Example T79, 2-(3-chloro-4-(9-(2-cyano-5-fluorobenzyl)-6-(1-methylcyclopropoxy)-9H-purin-8-yl)phenyl)acetamide], the figure is 158 nM.
Same read-out and setting: next, `CC1(Oc2ncnc3c2nc(-c2ccc(CC(N)=O)cc2Cl)n3Cc2ccnc(C#N)c2)CC1` [Example T40, 2-(3-chloro-4-(9-((2-cyanopyridin-4-yl)methyl)-6-(1-methylcyclopropoxy)-9H-purin-8-yl)phenyl)acetamide]: 5010 nM; `Cc1ccnc(Cn2c(-c3ccc(CCO)cc3Cl)nc3c(OC4(C)CC4)ncnc32)c1` [Example T65, 2-(3-chloro-4-(6-(1-methylcyclopropoxy)-9-((4-methylpyridin-2-yl)methyl)-9H-purin-8-yl)phenyl)ethan-1-ol]: 251 nM.
Still for that read-out and setting: as for `Cc1ccnc(Cn2c(-c3ccc(N4CCOC4=O)cc3Cl)nc3c(OC4(C)CC4)ncnc32)c1` [Example T96, 3-(3-chloro-4-(6-(1-methylcyclopropoxy)-9-((4-methylpyridin-2-yl)methyl)-9H-purin-8-yl)phenyl)oxazolidin-2-one], the figure is 100 nM; as for `CC1(Oc2ncnc3c2nc(-c2ccc(CC(N)=O)cc2Cl)n3Cc2nnc(C3CC3)s2)CC1` [Example T20, 2-(3-chloro-4-(9-((5-cyclopropyl-1,3,4-thiadiazol-2-yl)methyl)-6-(1-methylcyclopropoxy)-9H-purin-8-yl)phenyl)acetamide], 2510 nM; as for `CC1(Oc2ncnc3c2nc(-c2ccc(CC(N)=O)cc2Cl)n3Cc2ccccc2)CC1` [Example T48, 2-(4-(9-benzyl-6-(1-methylcyclopropoxy)-9H-purin-8-yl)-3-chlorophenyl)acetamide], 200 nM.

Staying with this assay, now noted: Homo sapiens, DLD-1, DLD-1 BRCA2 −/−, mean; read-out: POLQ PD Prolif Lumin BRCA2 −/− mean pIC50 (converted).
As to `CC(CCOc1ccc(-c2nc3c(OC4(C)CC4)ncnc3n2Cc2cccc(Cl)c2C#N)c(Cl)c1)C(=O)O` (racemic) [Example U37, 4-(3-chloro-4-(9-(3-chloro-2-cyanobenzyl)-6-(1-methylcyclopropoxy)-9H-purin-8-yl)phenoxy)-2-methylbutanoic acid], the IC50 is 2000 nM.
With `COc1c(Cl)cccc1Cn1c(-c2ccc(OCCC(C)C(=O)O)cc2Cl)nc2c(OC3(C)CC3)ncnc21` (racemic) [Example U3, 4-(3-chloro-4-(9-(3-chloro-2-methoxybenzyl)-6-(1-methylcyclopropoxy)-9H-purin-8-yl)phenoxy)-2-methylbutanoic acid], the IC50 is 3980 nM.
Still for that read-out and setting: next, `CC(COc1ccc(-c2nc3c(OC4(C)CC4)ncnc3n2Cc2cc(Cl)ccc2F)c(Cl)c1)CC(=O)O` (racemic) [Example U45, 4-(3-chloro-4-(9-(5-chloro-2-fluorobenzyl)-6-(1-methylcyclopropoxy)-9H-purin-8-yl)phenoxy)-3-methylbutanoic acid]: 79.4 nM; `CC1(Oc2ncnc3c2nc(-c2ccc(OCCC(C)(C)C(=O)O)cc2Cl)n3Cc2cc(Cl)ccc2F)CC1` [Example U46, 4-(3-chloro-4-(9-(5-chloro-2-fluorobenzyl)-6-(1-methylcyclopropoxy)-9H-purin-8-yl)phenoxy)-2,2-dimethylbutanoic acid]: 31.6 nM.

The same assay, now with this note: Homo sapiens, DLD-1, first proliferation column (c5); DLD-1 BRCA2-/-; read-out: POLQ PD Prolif Lumin (converted).
For `CNC(=O)[C@H]1CCN(c2ccc(-c3nc4c(OC5(C)CC5)ncnc4n3Cc3cc(C)ccn3)c(Cl)c2)C1` [Example T497, (S)-1-(3-chloro-4-(6-(1-methylcyclopropoxy)-9-((4-methylpyridin-2-yl)methyl)-9H-purin-8-yl)phenyl)-N-methylpyrrolidine-3-carboxamide], the IC50 is 501 nM.
Same read-out and setting: next, `Cc1ccnc(Cn2c(-c3ccc(OCCCF)cc3Cl)nc3c(OC4(C)CC4)ncnc32)c1` [Example T108, 8-(2-chloro-4-(3-fluoropropoxy)phenyl)-6-(1-methylcyclopropoxy)-9-((4-methylpyridin-2-yl)methyl)-9H-purine]: 126 nM.
Still for that read-out and setting: next, `Cc1ccc(C)c(Cn2c(-c3ccc(OCCC(C)C(=O)O)cc3Cl)nc3c(OC4(C)CC4)ncnc32)c1` (single isomer, unassigned) [Example T572, 4-(3-chloro-4-(9-(2,5-dimethylbenzyl)-6-(1-methylcyclopropoxy)-9H-purin-8-yl)phenoxy)-2-methylbutanoic acid]: 631 nM; `Cc1ccnc(Cn2c(-c3ccc(C(=O)NC[C@H](C)F)cc3Cl)nc3c(OC4(C)CC4)ncnc32)c1` [Example T190, (S)-3-chloro-N-(2-fluoropropyl)-4-(6-(1-methylcyclopropoxy)-9-((4-methylpyridin-2-yl)methyl)-9H-purin-8-yl)benzamide]: 398 nM; `CNC(=O)COc1ccc(-c2nc3c(OC4(C)CC4)ncnc3n2CCc2ccccc2)c(Cl)c1` [Example T195, 2-(3-chloro-4-(6-(1-methylcyclopropoxy)-9-phenethyl-9H-purin-8-yl)phenoxy)-N-methylacetamide]: 1260 nM.

Staying with this assay, now noted: Homo sapiens, DLD-1, proliferation, luminescence, taken as DLD-1 BRCA2-/-; read-out: POLQ PD Prolif Lumin (converted).
For the compound `CC(CCOc1ccc(-c2nc3c(OC4(C)CC4)ncnc3n2Cc2ccccc2C(F)F)c(Cl)c1)C(=O)O` (single isomer, unassigned) [Example T414, 4-(3-chloro-4-(9-(2-(difluoromethyl)benzyl)-6-(1-methylcyclopropoxy)-9H-purin-8-yl)phenoxy)-2-methylbutanoic acid], the IC50 was 1580 nM.
Consider `Cc1ccnc(Cn2c(-c3ccc(OCC(=O)N[C@@H]4CCOC4)cc3Cl)nc3c(OC4(C)CC4)ncnc32)c1` [Example T478, (R)-2-(3-chloro-4-(6-(1-methylcyclopropoxy)-9-((4-methylpyridin-2-yl)methyl)-9H-purin-8-yl)phenoxy)-N-(tetrahydrofuran-3-yl)acetamide], for which the IC50 was 501 nM.
As for `Cc1ccnc(Cn2c(-c3ccc(OCCN4CCCC4=O)cc3Cl)nc3c(OC4(C)CC4)ncnc32)c1` [Example T469, 1-(2-(3-chloro-4-(6-(1-methylcyclopropoxy)-9-((4-methylpyridin-2-yl)methyl)-9H-purin-8-yl)phenoxy)ethyl)pyrrolidin-2-one], the IC50 was 158 nM.
On the same count and under the same terms, next, `CC(CCCc1ccc(-c2nc3c(OC4(C)CC4)ncnc3n2Cc2cccc(Cl)c2)c(Cl)c1)C(=O)O` (racemic) [Example T434, 5-(3-chloro-4-(9-(3-chlorobenzyl)-6-(1-methylcyclopropoxy)-9H-purin-8-yl)phenyl)-2-methylpentanoic acid]: 158 nM.
